In US9546201B2, “MUC-1 cytoplasmic domain peptides as inhibitors of cancer” (DANA-FARBER CANCER INSTITUTE, INC., priority 2008, dated 2017):
Where two headings read alike, the source gives them in different places. Where a SMILES comes first, the peptide text is derived from it. Where no end group is shown, it is not given here. [ ]: non-standard residue; d: D form.

Experiments:
[1] = test system: ZR-75-1 breast tumor xenografts
Procedure: FIGS. 5A-C. […] (FIG. 5A) Four to six week-old female Balb-c nu/nu mice were implanted with 17-β-estradiol plugs. After 24 h, ZR-75-1 breast cancer cells (imbedded in matrigel) were injected subcutaneously in the flank. When tumors were ˜150 mm3, the mice were paired matched into groups and injected intraperitoneally with PBS (vehicle control; closed squares), 50 mg/kg MUC1/AQA peptide (control peptide; open squares) or 10 mg/kg MUC1/CQC peptide (closed triangles) daily for 21 d. Another group was treated with 50 mg/kg MUC1/CQC peptide daily (⇑) for 6 d (open triangles). Mice were weighed twice weekly and tumor measurements were performed every 4 d. (FIGS. 5B and 5C). On day 24 (asterisk), tumors harvested from the control group and the group treated with 50 mg/kg/d×6d were stained with H&E (FIG. 5B) and with an antibody against MUC1 (FIG. 5C).
(FIG. 6A) Mice were injected with ZR-75-1 cells as described in the legend to FIG. 5A. When tumors were ˜275 mm^3, the mice were paired matched into groups and injected intraperitoneally with PBS (vehicle control; open squares) or 30 mg/kg MUC1/CQC peptide (closed squares) daily for 21 days (solid horizontal bar). […] The treated mice were monitored until day 52 when tumors were harvested for H&E staining (FIG. 6B).
Balb-c nu/nu female mice (Charles River Laboratories, Wilmington, Mass.), 4-6 weeks old weighing 18-22 grams, were implanted subcutaneously with 17-β-estradiol plugs (0.72 mg; Innovative Research, Sarasota, Fla.) using a trocar gun. After 24 h, 1×10^7 ZR-75-1 cells imbedded in Matri-Gel (BD Biosciences) were injected subcutaneously in the flank. When tumors were detectable at ˜150 mm^3 (Cohort 1) or 275 mm^3 (Cohort 2), the mice were pair matched into treatment and control groups. Each group contained 5 mice, each of which was ear tagged and followed throughout the study. Initial dosing was administered at the time of pair matching (day 1). Phosphate-buffered saline (vehicle), MUC1/CQC peptide and MUC1/AQA peptide were administered daily by intraperitoneal injection. Mice were weighed twice weekly, and tumor measurements were performed using calipers every 4 d. Tumor volume (V) was calculated using the formula V=W2×L/2, where W and L are the smaller and larger diameters, respectively. At sacrifice, the mice were perfused with saline and then phosphate-buffered formalin by cardiac administration. Tumors were excised, immersion fixed for 4 h, dehydrated through a graded series of ethanols, and processed for routine paraffin embedding. Tumors were evaluated by H&E staining and for immunoperoxidase staining with anti-MUC1 as described (Kufe, 1984).
To determine if administration of the MUC1/CQC peptide is associated with effects on body weight, five female nude (nu/nu) mice were injected intraperitoneally (IP) once each day at a dose of 50 mg/kg. […] To assess anti-tumor activity, ZR-75-1 cells (1×10^7) were implanted subcutaneously into the flanks of nude mice. After 12 d, mice bearing tumors of approximately 150 mm^3 were treated with the MUC1/CQC peptide at doses of 10 and 50 mg/kg/d. As controls, mice were treated with vehicle alone or with the MUC1/AQA peptide. […] To assess in part the basis for the activity, tumors harvested from control and treated mice were examined by histopathology. […] Sections of the tumors were also stained with an antibody against MUC1.
Studies were also performed on larger tumors (˜275 mm^3) (FIG. 6A).

His-MUC1-CD = biological target: T1, His-MUC1-CD (Homo sapiens, UniProt P15941); test: BIAcore binding to immobilized His-MUC1-CD; details: data not shown
T1 sequence (P15941 1184-1255): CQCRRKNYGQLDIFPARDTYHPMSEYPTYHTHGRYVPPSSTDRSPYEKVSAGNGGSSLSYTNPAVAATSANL
Procedure: FIGS. 1A-D. MUC1/CQC peptide blocks MUC1 oligomerization. (FIG. 1A) Schematic representation of the MUC1-C subunit and the 72-amino acid sequence of MUC1-CD (SEQ ID NO: 1) are shown. The N-terminal 15 amino acids (shaded sequence; SEQ ID NO: 3) MUC1/CQC (SEQ ID NO: 63) and mutated MUC1/AQA (SEQ ID NO: 60) peptides were synthesized with the poly-dArg transduction domain. (FIG. 1B) His-MUC1-CD (1.4 mg/ml) was immobilized on a sensor chip in a BIAcore. MUC1/CQC was injected over the chip at 10 μM. Raw binding data were analyzed by BIAevaluation software version 3.0 and fit to a 1:1 Languir binding model. (FIG. 1C) Purified His-MUC1-CD (1.5 mg/ml) was incubated with PBS, 200 μM MUC1/CQC or 200 μM MUC1/AQA for 1 h at room temperature. The proteins were separated in a non-reducing SDS-polyacrylamide gel and analyzed by immunoblotting with anti-MUC1-C. (FIG. 1D) 293 cells were transiently transfected to express an empty vector or GFP-MUC1-CD and Flag-MUC1-CD. At 48 h after transfection, the cells were treated with 5 μM MUC1/CQC or MUC1/AQA for 3 d. The cells were then harvested for immunoblotting with anti-MUC1-C (left panel). […]
The MUC1 cytoplasmic domain (MUC1-CD) contains a CQC motif that is necessary for the formation of oligomers and nuclear localization (Leng et al., 2007). […] Purified His-tagged MUC1-CD forms oligomers as detected by electrophoresis in polyacrylamide gels (FIG. 1C). […]

[2] = 30 mg/kg/d×21 d, tumors harvested on day 52

Compound	tumor growth ([1]; 10 mg/kg/d×21 d IP, tumors ~150 mm3, compared with MUC1/AQA 50 mg/kg/d)	MUC1 expression in tumors [1, 2]	tumor histopathology (H&E) [1, 2]	tumor growth ([1]; 30 mg/kg/d×21 d IP, larger tumors ~275 mm3)	tumor growth during treatment ([1]; 50 mg/kg/d IP, initial 7 d, tumors ~150 mm3)	tumor growth ([1]; 10 and 30 mg/kg/d for 21 d)	tumor histopathology (H&E) ([1]; 10 and 50 mg/kg, compared with vehicle or MUC1/AQA)	MUC1 expression in tumors (anti-MUC1 staining) ([1]; tumors ~150 mm3 cohort, compared with control and MUC1/AQA)	binding to His-MUC1-CD (His-MUC1-CD)	anti-tumor activity ([1]; 50 mg/kg/d for 21 d)
CC[C@H](C)[C@H](NC(=O)[C@H](CC(=O)O)NC(=O)[C@H](CC(C)C)NC(=O)[C@H](CCC(N)=O)NC(=O)CNC(=O)[C@H](Cc1ccc(O)cc1)NC(=O)[C@H](CC(N)=O)NC(=O)[C@H](CCCCN)NC(=O)[C@H](CCCNC(=N)N)NC(=O)[C@H](CCCNC(=N)N)NC(=O)[C@H](CS)NC(=O)[C@H](CCC(N)=O)NC(=O)[C@H](CS)NC(=O)[C@@H](CCCNC(=N)N)NC(=O)[C@@H](CCCNC(=N)N)NC(=O)[C@@H](CCCNC(=N)N)NC(=O)[C@@H](CCCNC(=N)N)NC(=O)[C@@H](CCCNC(=N)N)NC(=O)[C@@H](CCCNC(=N)N)NC(=O)[C@@H](CCCNC(=N)N)NC(=O)[C@@H](CCCNC(=N)N)NC(=O)[C@H](N)CCCNC(=N)N)C(=O)N[C@@H](Cc1ccccc1)C(=O)N1CCC[C@H]1C(=O)O [MUC1/CQC] (H-[dR][dR][dR][dR][dR][dR][dR][dR][dR]CQCRRKNYGQLDIFP-OH; N-terminus and C-terminus assumed)	slowed growth	down-regulation of MUC1 expression	extensive areas of necrosis	arrest of tumor growth	blocked growth	effective in abrogating tumor growth	markedly necrotic	marked down-regulation of MUC1 expression	–	–
MUC1/AQA: control peptide in which the CQC motif was altered to AQA, with poly-dArg transduction domain; SEQ ID NO: 60 ([dR][dR][dR][dR][dR][dR][dR][dR][dR]AQARRKNYGQLDIFP) [reference compound]	–	–	–	–	–	–	–	–	no apparent binding	no anti-tumor activity
